Consider nine compounds from patent publication US8906925B2, “Pyrido[4,3-B]indoles containing rigid moieties” (Medivation Technologies, Inc., priority 2008, dated 2014).

The target of experiment [1] is T1, human recombinant histamine H2 receptor (Homo sapiens, UniProt P25021).
T1 construct: expressed in transfected cells; host or cells: Chinese hamster ovary (CHO) K1 cells
The experiment can be described thus: Histamine H2 radioligand binding ([125I]Aminopotentidine). To be noted: read-out: Histamine Binding (1 μM) H2, percent inhibition of specific binding, 1 μM. A digest of the protocol:
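CHO-K1 cells expressing human recombinant H2 receptor, 50 mM phosphate buffer pH 7.4; compounds incubated with 0.1 nM [125I]aminopotentidine for 120 min at 25 °C. Nonspecific binding defined with 3 μM tiotidine; specifically bound radioligand counted after filtration and washing.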

In experiment [2] the target is T2, human recombinant adrenergic α2A receptor (Homo sapiens, UniProt P08913).
T2 construct: expressed in transfected cells; host or cells: insect Sf9 cells
T2 sequence (P08913 1-465): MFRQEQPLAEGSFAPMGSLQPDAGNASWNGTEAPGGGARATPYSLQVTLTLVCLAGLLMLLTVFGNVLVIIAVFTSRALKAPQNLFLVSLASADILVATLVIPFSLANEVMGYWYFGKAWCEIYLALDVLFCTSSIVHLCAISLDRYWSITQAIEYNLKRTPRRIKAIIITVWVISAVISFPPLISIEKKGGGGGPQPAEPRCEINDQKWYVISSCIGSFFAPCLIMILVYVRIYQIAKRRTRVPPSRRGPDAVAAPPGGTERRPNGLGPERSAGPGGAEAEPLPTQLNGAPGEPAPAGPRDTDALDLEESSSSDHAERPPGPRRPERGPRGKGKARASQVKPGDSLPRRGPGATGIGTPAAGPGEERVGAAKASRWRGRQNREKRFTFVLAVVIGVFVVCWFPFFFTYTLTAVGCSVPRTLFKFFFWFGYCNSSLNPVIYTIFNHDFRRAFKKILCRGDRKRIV
The experiment can be described thus: Adrenergic α2A radioligand binding ([3H]MK-912). To be noted: percent inhibition of specific binding; compound at 1 μM; read-out: Inhibition of ligand binding, Adrenergic α2A. As for the experimental part: To evaluate in radioligand binding assays the activity of compounds of the invention, human recombinant adrenergic α2A receptor expressed in insect Sf9 cells (Uhlen S et al. J Pharmacol Exp Ther. 271:1558, 1994) in a modified Tris-HCl buffer (50 mM Tris-HCl, pH 7.4, 12.5 mM MgCl2, 2 mM EDTA) was used. Compounds of invention were incubated with 1 nM [^3H]MK-912 for 60 min. at 25° C. MK912 is (2S-trans)-1,3,4,5′,6,6′,7,12b-octahydro-1′,3′-dimethyl-spiro[2H-benzofuro[2,3-a]quinolizine-2,4′(1′H)-pyrimidin]-2′(3′H)-one hydrochloride Non-specific binding was estimated in the presence of 10 μM WB-4101 (2-(2,6-Dimethoxyphenoxyethyl)aminomethyl-1,4-benzodioxane hydrochloride). Receptor proteins were filtered and washed, the filters were then counted to determine [^3H]MK-912 specifically bound. Compounds were screened at 1 μM or lower, using 1% DMSO as vehicle. Biochemical assay results are presented as the percent inhibition of specific binding in Table 9.

For experiment [3], the target named is T3, human recombinant adrenergic α2B receptor (Homo sapiens, UniProt P18089).
T3 construct: expressed in transfected cells; host or cells: Chinese hamster ovary (CHO-K1) cells
T3 sequence (P18089 1-450): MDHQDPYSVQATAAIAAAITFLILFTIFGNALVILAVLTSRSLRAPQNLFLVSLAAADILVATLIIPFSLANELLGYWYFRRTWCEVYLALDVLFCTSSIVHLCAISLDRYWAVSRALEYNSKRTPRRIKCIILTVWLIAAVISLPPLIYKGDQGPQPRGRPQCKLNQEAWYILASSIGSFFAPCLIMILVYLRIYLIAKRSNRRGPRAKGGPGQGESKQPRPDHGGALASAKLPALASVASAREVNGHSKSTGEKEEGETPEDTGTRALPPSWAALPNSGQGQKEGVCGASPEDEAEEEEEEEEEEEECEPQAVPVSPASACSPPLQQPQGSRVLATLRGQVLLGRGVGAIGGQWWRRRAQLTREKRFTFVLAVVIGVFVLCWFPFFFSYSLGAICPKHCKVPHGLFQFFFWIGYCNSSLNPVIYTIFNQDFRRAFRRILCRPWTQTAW
In words: Adrenergic α2B radioligand binding ([3H]Rauwolscine). To be noted: percent inhibition of specific binding, compound at 1 μM; for inhibition at 1 µM: read-out: Inhibition of ligand binding, Adrenergic α2B. The procedure: To evaluate in radioligand binding assays the activity of compounds of the invention, human recombinant adrenergic α2B receptor expressed in Chinese hamster ovary (CHO-K1) cells (Uhlen S et al. Eur J Pharmacol. 343(1):93, 1998) in a modified Tris-HCl buffer (50 mM Tris-HCl, pH 7.4, 12.5 mM MgCl2, 1 mM EDTA, 0.2% BSA) was used. Compounds of the invention were incubated with 2.5 nM [^3H]Rauwolscine for 60 min. at 25° C. Non-specific binding was estimated in the presence of 10 μM Prozosin. Receptor proteins were filtered and washed, the filters were then counted to determine [^3H]Rauwolscine specifically bound. Compounds were screened at 1 μM or lower, using 1% DMSO as vehicle. Biochemical assay results are presented as the percent inhibition of specific binding in Table 9.

Experiment [4] addresses T4, human recombinant serotonin (5-Hydroxytryptamine) 5-HT6 receptor (Homo sapiens, UniProt P50406).
T4 construct: expressed in transfected cells; host or cells: human HeLa cells
The experiment can be described thus: Serotonin 5-HT6 radioligand binding ([3H]LSD). To be noted: read-out: Inhibition of ligand binding, Serotonin 5-HT6 (percent inhibition of specific binding); for inhibition at 1 µM: compound at 1 μM. As for the experimental part: Compounds of the invention were incubated with 1.5 nM [3H]Lysergic acid diethylamide (LSD) for 120 min. at 37° C. […] Receptor proteins were filtered and washed, the filters were then counted to determine [3H]LSD specifically bound. Compounds were screened at 1 μM or lower, using 1% DMSO as vehicle. Biochemical assay results are presented as the percent inhibition of specific binding in Table 10.

Experiment [5] addresses human recombinant serotonin (5-Hydroxytryptamine) 5-HT7 receptor (Homo sapiens, UniProt P34969). In words: Serotonin 5-HT7 radioligand binding ([3H]LSD). To be noted: compound at 1 μM; read-out: Inhibition of ligand binding, Serotonin 5-HT7 (percent inhibition of specific binding). From the text: Receptor proteins were filtered and washed, the filters were then counted to determine [^3H]LSD specifically bound.

T4 sequence (P50406 whole entry): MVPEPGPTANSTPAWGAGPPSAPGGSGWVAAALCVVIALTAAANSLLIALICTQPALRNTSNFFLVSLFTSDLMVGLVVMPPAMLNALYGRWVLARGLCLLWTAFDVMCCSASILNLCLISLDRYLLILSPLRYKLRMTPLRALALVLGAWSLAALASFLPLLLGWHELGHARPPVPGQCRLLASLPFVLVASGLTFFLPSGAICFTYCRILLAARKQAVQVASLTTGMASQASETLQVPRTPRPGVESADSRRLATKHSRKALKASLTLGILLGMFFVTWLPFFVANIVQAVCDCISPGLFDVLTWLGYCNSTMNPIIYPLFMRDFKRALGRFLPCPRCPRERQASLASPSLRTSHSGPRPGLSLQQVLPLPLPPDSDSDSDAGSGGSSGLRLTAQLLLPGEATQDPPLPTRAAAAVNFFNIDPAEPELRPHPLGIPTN
T1 sequence (P25021 whole entry): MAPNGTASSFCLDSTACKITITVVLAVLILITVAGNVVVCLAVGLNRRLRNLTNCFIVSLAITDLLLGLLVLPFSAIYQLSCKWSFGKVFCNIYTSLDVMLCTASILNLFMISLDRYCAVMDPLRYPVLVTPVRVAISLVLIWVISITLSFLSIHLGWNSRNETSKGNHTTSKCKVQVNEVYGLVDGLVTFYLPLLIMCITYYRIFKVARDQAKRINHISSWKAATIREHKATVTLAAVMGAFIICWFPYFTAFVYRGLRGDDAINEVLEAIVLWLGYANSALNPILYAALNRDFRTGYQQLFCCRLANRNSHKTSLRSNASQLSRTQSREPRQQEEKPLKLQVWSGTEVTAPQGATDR
human recombinant serotonin (5-Hydroxytryptamine) 5-HT7 receptor, sequence (P34969 whole entry): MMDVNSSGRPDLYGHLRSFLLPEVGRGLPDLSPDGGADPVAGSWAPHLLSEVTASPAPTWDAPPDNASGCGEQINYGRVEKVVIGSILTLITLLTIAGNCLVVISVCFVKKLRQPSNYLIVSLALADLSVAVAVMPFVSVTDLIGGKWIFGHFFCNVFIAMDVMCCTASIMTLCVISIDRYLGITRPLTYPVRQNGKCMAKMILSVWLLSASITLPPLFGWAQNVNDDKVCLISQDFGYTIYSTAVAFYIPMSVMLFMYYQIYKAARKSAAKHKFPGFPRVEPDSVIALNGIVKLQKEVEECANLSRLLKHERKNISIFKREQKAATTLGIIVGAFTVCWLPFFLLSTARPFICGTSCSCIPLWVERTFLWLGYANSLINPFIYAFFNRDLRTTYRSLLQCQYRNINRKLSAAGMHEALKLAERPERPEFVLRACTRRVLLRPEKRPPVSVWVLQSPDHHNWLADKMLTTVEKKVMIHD

In the case of `CN1CCc2c(c3cc(Cl)ccc3n2C2=C(c3cccnc3)CCCC2)C1` [Compound No. 166, 8-chloro-2-methyl-5-(2-(pyridin-3-yl)cyclohex-1-enyl)-2,3,4,5-tetrahydro-1H-pyrido[4,3-b]indole], the inhibition at 1 µM in experiment [1] worked out at 56%; in experiment [2], 44%; in experiment [3] it was 63%; in experiment [4], 6%.

Consider `Cc1ccc2c(c1)c1c(n2/C=C/c2ccc(C)nc2)CCN(C)C1` [compound 95, 2,3,4,5-tetrahydro-2,8-dimethyl-5-((E)-2-(6-methylpyridin-3-yl)vinyl)-1H-pyrido[4,3-b]indole], for which the inhibition at 1 µM in experiment [1] came out at 41%; in experiment [2], 95%; in experiment [3], 103%; in experiment [4], 71%.

In the case of `COc1ccc(C(C)(O)Cn2c3c(c4cc(Cl)ccc42)CN(C)CC3)cc1F` (stereo not shown) [Compound 59, 1-(8-chloro-1,2,3,4-tetrahydro-2-methylpyrido[4,3-b]indol-5-yl)-2-(3-fluoro-4-methoxyphenyl)propan-2-ol], the inhibition at 1 µM in experiment [1] amounted to 58%; in experiment [2], 83%; in experiment [3], 95%; in experiment [4] it was 54%.

With `CN1CCc2c(c3cc(Cl)ccc3n2CC(C)(O)c2ccncc2)C1` (stereo not shown) [Compound 63, 1-(8-chloro-1,2,3,4-tetrahydro-2-methylpyrido[4,3-b]indol-5-yl)-2-(pyridin-4-yl)propan-2-ol], the inhibition at 1 µM in experiment [1] was 53%; in experiment [2] it was 74%; in experiment [3], 101%; in experiment [4], 73%.

Turning to `Cc1ccc(C(O)Cn2c3c(c4cc(C)ccc42)CN(C)CC3)cc1` (racemic) [Compound 43, racemic-2-(1,2,3,4-tetrahydro-2,8-dimethylpyrido[4,3-b]indol-5-yl)-1-p-tolylethanol], the inhibition at 1 µM in experiment [2] was found to be 98%; in experiment [3] it was 108%; in experiment [4], 95%; in experiment [5], 98%. In addition, in experiment [3] (1 µM), the “Inhibition of ligand binding, Adrenergic α2B” value is reported as 102%. The inhibition at 0.1 µM in experiment [4] (compound at 0.1 μM) was found to be 62%.

Turning to `COc1ccc(/C(C)=C/n2c3c(c4cc(Cl)ccc42)CN(C)CC3)cc1` [Compound 92, (E)-8-chloro-2,3,4,5-tetrahydro-5-(2-(4-methoxyphenyl)prop-1-enyl)-2-methyl-1H-pyrido[4,3-b]indole], the inhibition at 1 µM in experiment [1] stood at 99%; in experiment [2], 89%; in experiment [3], 103%; in experiment [4] it was 97%.

Turning to `CN1CCc2c(c3cc(Cl)ccc3n2C/C=C/c2ccc(F)cc2)C1` [Compound 126, 5-(4-fluorocinnamyl)-8-chloro-2,3,4,5-tetrahydro-2-methyl-1H-pyrido[4,3-b]indole], the inhibition at 1 µM in experiment [1] was 85%; in experiment [2], 87%; in experiment [3], 116%; in experiment [4], 95%.

For `Cc1ccc2c(c1)c1c(n2CC(C)(O)c2ccc(C)nc2)CCN(C)C1` (stereo not shown) [Compound 52, 1-(1,2,3,4-tetrahydro-2,8-dimethylpyrido[4,3-b]indol-5-yl)-2-(6-methylpyridin-3-yl)propan-2-ol], the inhibition at 1 µM is 51% in experiment [1], 84% in experiment [2], 104% in experiment [3] and 37% in experiment [4].

As for `Cc1ccc2c(c1)c1c(n2CC(C)(O)c2ccc(F)cc2)CCN(C)C1` (stereo not shown) [Compound 55, 2-(4-fluorophenyl)-1-(1,2,3,4-tetrahydro-2,8-dimethylpyrido[4,3-b]indol-5-yl)propan-2-ol], the inhibition at 1 µM in experiment [1] amounted to 88%; in experiment [2] it was 85%; in experiment [3], 108%.

One may read the inhibition as the change of the read-out against control, counted positive when it falls.
